Measured values published in US20240316028A1, “[…] FORMULATIONS AND THEIR USES” (priority 2023, published 2024).
Counter-ions that a name gives are not always drawn.

What was measured:
[1] = format: physicochemical
Procedure: All excipients used in the formulations were compatible with physostigmine before and after eBeam of 25 kGy. NaOH was used to adjust the cream pH and was added before mixing with physostigmine.

[2] = thermal and photolytic conditions

| SMILES | Total Impurities Pre eBeam ([1]; Table 13) | Total Impurities Post eBeam T0 ([1]; Table 13, eBeam 25 kGy) | thermal and photolytic degradation [2] |
| --- | --- | --- | --- |
| CNC(=O)Oc1ccc2c(c1)[C@]1(C)CCN(C)[C@@H]1N2C [Physostigmine Salicylate] | 0.11 | 0.15 | – |
| CN1[C@@H]2CC[C@H]1C[C@@H](OC(=O)C(CO)c1ccccc1)C2 (stereo partly drawn) [atropine sulfate] | – | – | No significant variation |
